Reference: the supplement of paper PMC10307832

Assays:
Experiment in all cases: relative viability (nuclei count vs DMSO), 5 days (fraction); higher = more cells survive
Crenolanib + Foretinib = compound: CC1(COc2ccc3c(c2)ncn3-c2ccc3cccc(N4CCC(N)CC4)c3n2)COC1 [Crenolanib] + COc1cc2c(Oc3ccc(NC(=O)C4(C(=O)Nc5ccc(F)cc5)CC4)cc3F)ccnc2cc1OCCCN1CCOCC1 [Foretinib] (partner 0.25 µM)
In short: (§1)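 Values are medians from duplicate plates. Each reflects relative viability, defined as the nuclei count of treated wells over that of vehicle wells. Lung cancer cell lines in 1536-well plates were pin-tool dosed one day after seeding with one drug alone or with a fixed anchor-drug dose plus five library-drug doses (not always all listed) in √10 steps, then fixed, stained and imaged at 4× after 5 days.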

Crenolanib + Crizotinib = compound: CC1(COc2ccc3c(c2)ncn3-c2ccc3cccc(N4CCC(N)CC4)c3n2)COC1 [Crenolanib] + C[C@@H](Oc1cc(-c2cnn(C3CCNCC3)c2)cnc1N)c1c(Cl)ccc(F)c1Cl [Crizotinib] (partner 1 µM)
In short: as §1

Crenolanib + Linsitinib = compound: CC1(COc2ccc3c(c2)ncn3-c2ccc3cccc(N4CCC(N)CC4)c3n2)COC1 [Crenolanib] + C[C@]1(O)C[C@@H](c2nc(-c3ccc4ccc(-c5ccccc5)nc4c3)c3c(N)nccn32)C1 [Linsitinib] (partner 1 µM)
In short: as §1

Tivantinib + Pictilisib = compound: O=C1NC(=O)[C@@H](c2cn3c4c(cccc24)CCC3)[C@@H]1c1c[nH]c2ccccc12 [Tivantinib] + CS(=O)(=O)N1CCN(Cc2cc3nc(-c4cccc5[nH]ncc45)nc(N4CCOCC4)c3s2)CC1 [Pictilisib] (partner 1 µM)
In short: as §1

LCLC-97TM1 showed a relative viability (Crenolanib + Foretinib; first compound 0.01 µM) of 1.01, a relative viability (Crenolanib + Foretinib; first compound 0.03162 µM) of 0.867 and a relative viability (Crenolanib + Foretinib; first compound 0.1 µM) of 0.958. The relative viability (Crenolanib + Foretinib; first compound 0.3162 µM) was 0.979, the relative viability (Crenolanib + Foretinib; first compound 1 µM) was 0.971 and the relative viability (Crenolanib + Crizotinib; first compound 0.01 µM) was 0.42. The relative viability (Crenolanib + Crizotinib; first compound 0.03162 µM) was 0.355, the relative viability (Crenolanib + Crizotinib; first compound 0.1 µM) was 0.479 and the relative viability (Crenolanib + Crizotinib; first compound 0.3162 µM) was 0.324. It also gave a relative viability (Crenolanib + Crizotinib; first compound 1 µM) of 0.457, a relative viability (Crenolanib + Linsitinib; first compound 0.01 µM) of 0.18 and a relative viability (Crenolanib + Linsitinib; first compound 0.03162 µM) of 0.222. It also gave a relative viability (Crenolanib + Linsitinib; first compound 0.1 µM) of 0.185, a relative viability (Crenolanib + Linsitinib; first compound 0.3162 µM) of 0.186 and a relative viability (Crenolanib + Linsitinib; first compound 1 µM) of 0.184. For the same cell line, the relative viability (Tivantinib + Pictilisib; first compound 0.01 µM) was 0.199, the relative viability (Tivantinib + Pictilisib; first compound 0.03162 µM) was 0.14 and the relative viability (Tivantinib + Pictilisib; first compound 0.1 µM) was 0.234. For the same cell line, the relative viability (Tivantinib + Pictilisib; first compound 0.3162 µM) was 0.181.
LOU-NH91 showed a relative viability (Crenolanib + Foretinib; first compound 0.01 µM) of 0.969, a relative viability (Crenolanib + Foretinib; first compound 0.03162 µM) of 0.914 and a relative viability (Crenolanib + Foretinib; first compound 0.1 µM) of 0.893. It also gave a relative viability (Crenolanib + Foretinib; first compound 0.3162 µM) of 0.888, a relative viability (Crenolanib + Foretinib; first compound 1 µM) of 0.892 and a relative viability (Crenolanib + Crizotinib; first compound 0.01 µM) of 0.765. The relative viability (Crenolanib + Crizotinib; first compound 0.03162 µM) was 0.753, the relative viability (Crenolanib + Crizotinib; first compound 0.1 µM) was 0.688 and the relative viability (Crenolanib + Crizotinib; first compound 0.3162 µM) was 0.722. It also gave a relative viability (Crenolanib + Crizotinib; first compound 1 µM) of 0.729, a relative viability (Crenolanib + Linsitinib; first compound 0.01 µM) of 1.02 and a relative viability (Crenolanib + Linsitinib; first compound 0.03162 µM) of 0.908. For the same cell line, the relative viability (Crenolanib + Linsitinib; first compound 0.1 µM) was 0.822, the relative viability (Crenolanib + Linsitinib; first compound 0.3162 µM) was 0.887 and the relative viability (Crenolanib + Linsitinib; first compound 1 µM) was 0.936. It also gave a relative viability (Tivantinib + Pictilisib; first compound 0.01 µM) of 0.517, a relative viability (Tivantinib + Pictilisib; first compound 0.03162 µM) of 0.485 and a relative viability (Tivantinib + Pictilisib; first compound 0.1 µM) of 0.521. For the same cell line, the relative viability (Tivantinib + Pictilisib; first compound 0.3162 µM) was 0.519.
In the case of NCI-H838, the relative viability (Crenolanib + Foretinib; first compound 0.01 µM) is reported as 1.11, the relative viability (Crenolanib + Foretinib; first compound 0.03162 µM) is reported as 1.03 and the relative viability (Crenolanib + Foretinib; first compound 0.1 µM) is reported as 1.04. For the same cell line, the relative viability (Crenolanib + Foretinib; first compound 0.3162 µM) was 1.16, the relative viability (Crenolanib + Foretinib; first compound 1 µM) was 1.06 and the relative viability (Crenolanib + Crizotinib; first compound 0.01 µM) was 0.883. The relative viability (Crenolanib + Crizotinib; first compound 0.03162 µM) was 0.855, the relative viability (Crenolanib + Crizotinib; first compound 0.1 µM) was 0.821 and the relative viability (Crenolanib + Crizotinib; first compound 0.3162 µM) was 0.872. It also gave a relative viability (Crenolanib + Crizotinib; first compound 1 µM) of 0.772, a relative viability (Crenolanib + Linsitinib; first compound 0.01 µM) of 1.05 and a relative viability (Crenolanib + Linsitinib; first compound 0.03162 µM) of 0.967. The relative viability (Crenolanib + Linsitinib; first compound 0.1 µM) was 0.929, the relative viability (Crenolanib + Linsitinib; first compound 0.3162 µM) was 1.09 and the relative viability (Crenolanib + Linsitinib; first compound 1 µM) was 0.943. For the same cell line, the relative viability (Tivantinib + Pictilisib; first compound 0.01 µM) was 0.442, the relative viability (Tivantinib + Pictilisib; first compound 0.03162 µM) was 0.479 and the relative viability (Tivantinib + Pictilisib; first compound 0.1 µM) was 0.389. The relative viability (Tivantinib + Pictilisib; first compound 0.3162 µM) was 0.373.
NCI-H1437 was tested, and the relative viability (Crenolanib + Foretinib; first compound 0.01 µM) was 1.28, the relative viability (Crenolanib + Foretinib; first compound 0.03162 µM) was 1.28 and the relative viability (Crenolanib + Foretinib; first compound 0.1 µM) was 1.31. For the same cell line, the relative viability (Crenolanib + Foretinib; first compound 0.3162 µM) was 1.31, the relative viability (Crenolanib + Foretinib; first compound 1 µM) was 1.14 and the relative viability (Crenolanib + Crizotinib; first compound 0.01 µM) was 1.02. It also gave a relative viability (Crenolanib + Crizotinib; first compound 0.03162 µM) of 1.04, a relative viability (Crenolanib + Crizotinib; first compound 0.1 µM) of 1 and a relative viability (Crenolanib + Crizotinib; first compound 0.3162 µM) of 1.04. It also gave a relative viability (Crenolanib + Crizotinib; first compound 1 µM) of 0.897, a relative viability (Crenolanib + Linsitinib; first compound 0.01 µM) of 1.05 and a relative viability (Crenolanib + Linsitinib; first compound 0.03162 µM) of 1.03. For the same cell line, the relative viability (Crenolanib + Linsitinib; first compound 0.1 µM) was 0.958, the relative viability (Crenolanib + Linsitinib; first compound 0.3162 µM) was 1.12 and the relative viability (Crenolanib + Linsitinib; first compound 1 µM) was 1.02. The relative viability (Tivantinib + Pictilisib; first compound 0.01 µM) was 0.379, the relative viability (Tivantinib + Pictilisib; first compound 0.03162 µM) was 0.308 and the relative viability (Tivantinib + Pictilisib; first compound 0.1 µM) was 0.416. For the same cell line, the relative viability (Tivantinib + Pictilisib; first compound 0.3162 µM) was 0.407.
Work on IA-LM yielded a relative viability (Crenolanib + Foretinib; first compound 0.01 µM) of 1.37, a relative viability (Crenolanib + Foretinib; first compound 0.03162 µM) of 1.1 and a relative viability (Crenolanib + Foretinib; first compound 0.1 µM) of 1.08. For the same cell line, the relative viability (Crenolanib + Foretinib; first compound 0.3162 µM) was 1.22, the relative viability (Crenolanib + Foretinib; first compound 1 µM) was 1.3 and the relative viability (Crenolanib + Crizotinib; first compound 0.01 µM) was 0.925. It also gave a relative viability (Crenolanib + Crizotinib; first compound 0.03162 µM) of 0.9, a relative viability (Crenolanib + Crizotinib; first compound 0.1 µM) of 0.631 and a relative viability (Crenolanib + Crizotinib; first compound 0.3162 µM) of 1.29. It also gave a relative viability (Crenolanib + Crizotinib; first compound 1 µM) of 1.26, a relative viability (Crenolanib + Linsitinib; first compound 0.01 µM) of 0.717 and a relative viability (Crenolanib + Linsitinib; first compound 0.03162 µM) of 0.558. It also gave a relative viability (Crenolanib + Linsitinib; first compound 0.1 µM) of 0.605, a relative viability (Crenolanib + Linsitinib; first compound 0.3162 µM) of 0.841 and a relative viability (Crenolanib + Linsitinib; first compound 1 µM) of 0.834. It also gave a relative viability (Tivantinib + Pictilisib; first compound 0.01 µM) of 0.401, a relative viability (Tivantinib + Pictilisib; first compound 0.03162 µM) of 0.334 and a relative viability (Tivantinib + Pictilisib; first compound 0.1 µM) of 0.343. For the same cell line, the relative viability (Tivantinib + Pictilisib; first compound 0.3162 µM) was 0.218.
With NCI-H2087 the relative viability (Crenolanib + Foretinib; first compound 0.01 µM) was 1.23, the relative viability (Crenolanib + Foretinib; first compound 0.03162 µM) was 1.32 and the relative viability (Crenolanib + Foretinib; first compound 0.1 µM) was 1.1. For the same cell line, the relative viability (Crenolanib + Foretinib; first compound 0.3162 µM) was 1.27, the relative viability (Crenolanib + Foretinib; first compound 1 µM) was 1.27 and the relative viability (Crenolanib + Crizotinib; first compound 0.01 µM) was 0.693. The relative viability (Crenolanib + Crizotinib; first compound 0.03162 µM) was 0.919, the relative viability (Crenolanib + Crizotinib; first compound 0.1 µM) was 0.809 and the relative viability (Crenolanib + Crizotinib; first compound 0.3162 µM) was 0.992. The relative viability (Crenolanib + Crizotinib; first compound 1 µM) was 0.965, the relative viability (Crenolanib + Linsitinib; first compound 0.01 µM) was 1.02 and the relative viability (Crenolanib + Linsitinib; first compound 0.03162 µM) was 1.13. For the same cell line, the relative viability (Crenolanib + Linsitinib; first compound 0.1 µM) was 0.917, the relative viability (Crenolanib + Linsitinib; first compound 0.3162 µM) was 1.23 and the relative viability (Crenolanib + Linsitinib; first compound 1 µM) was 1.02. For the same cell line, the relative viability (Tivantinib + Pictilisib; first compound 0.01 µM) was 0.958, the relative viability (Tivantinib + Pictilisib; first compound 0.03162 µM) was 0.757 and the relative viability (Tivantinib + Pictilisib; first compound 0.1 µM) was 0.909. It also gave a relative viability (Tivantinib + Pictilisib; first compound 0.3162 µM) of 0.896.
